How the values were obtained:
[1] = biological target: T1, SIRT5 (Homo sapiens, UniProt Q9NXA8); experiment: Labeling of SIRT5 in partially purified recombinant sirtuin mixture and peptide competition; type: biochemical; conditions: 500 μM NAD+, increasing concentrations of probe, 20 min irradiation
T1 construct: SIRT5 (34-302); made in house
T1 sequence (Q9NXA8 34-302): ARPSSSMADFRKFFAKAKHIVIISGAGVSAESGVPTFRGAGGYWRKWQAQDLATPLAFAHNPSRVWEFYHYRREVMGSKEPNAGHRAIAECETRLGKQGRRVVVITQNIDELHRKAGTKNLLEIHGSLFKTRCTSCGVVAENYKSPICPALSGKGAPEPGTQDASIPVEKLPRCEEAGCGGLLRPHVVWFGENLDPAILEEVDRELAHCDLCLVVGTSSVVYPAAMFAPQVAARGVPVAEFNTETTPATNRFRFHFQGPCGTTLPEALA
From the text: Probe 2B, being a selective SIRT5 inhibitor, was also selective for SIRT5 in the labeling experiments. […] The on-target effect of probe 2B was further confirmed by the peptide competition analysis. H3K9Suc (Figure 4B), a synthetic peptide that is identical to the N-terminus of histone H3 bearing a succinylated lysine 9 mark, is a known SIRT5 substrate. H3K9Suc was titrated into SIRT5 in the presence of probe 2B.
Figure 4 Labeling of SIRT5 by probe 2B. (A) Dose-dependent labeling of SIRT5 by probe 2B in recombinantly expressed, partially purified sirtuin mixture. SIRT1, SIRT2, SIRT3, SIRT5, and SIRT6 were mixed and incubated with 500 μM NAD^+ and increasing concentrations of 2B. The samples were incubated at 37 °C for 10 min and subjected to UV irradiation for 20 min, and then “click” conjugated to TAMRA-azide; (B) Chemical structure of H3K9Suc; (C) Peptide competition. The labeling of SIRT5 by probe 2B decreased with increasing concentrations of the competitor peptide, H3K9Suc.
A typical labeling experiment was performed as follows: in a 0.7 mL Eppendorf tube, purified recombinant human sirtuin (10 μM) was incubated with NAD^+ (500 μM) and activity-based probe at 37 °C for 10 min. […] Then, destained gel was analyzed with in-gel fluorescence scanning using a Biorad ChemiDoc MP imager (excitation 532 nm, 580 nm cut-off filter and 30 nm band-pass). […]

[2] = biological target: T2, SIRT5 (Homo sapiens, UniProt Q9NXA8); experiment: Western blot of CPS1Ac in HEK293 cells; type: cell-based
T2 construct: endogenous in cells; host or cells: HEK293
T2 sequence (Q9NXA8 37-310): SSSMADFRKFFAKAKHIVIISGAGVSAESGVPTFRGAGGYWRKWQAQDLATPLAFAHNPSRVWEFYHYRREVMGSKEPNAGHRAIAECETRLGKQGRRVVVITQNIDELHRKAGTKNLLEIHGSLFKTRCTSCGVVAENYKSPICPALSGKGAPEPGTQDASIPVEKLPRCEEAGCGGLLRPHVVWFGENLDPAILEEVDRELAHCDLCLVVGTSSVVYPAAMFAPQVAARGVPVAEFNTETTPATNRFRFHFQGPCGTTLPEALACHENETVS
Description: The cellular activity of probes 2A and 2B was also investigated. […] SIRT5 is known to deacetylate and activate carbamoyl phosphate synthetase I (CPS1), which is the enzyme catalyzing the first step of the urea cycle. Cells were treated with either probe 2B or a known SIRT5 inhibitor, suramin, before the acetylation level of CPS1 (CPS1Ac) was examined.
The cell lysate was resolved on a 10% SDS-PAGE gel and transferred to Immobilon PVDF transfer membrane (Millipore, Burlington, MA, USA). The blot was blocked with 5% nonfat milk, probed with primary antibody targeting H3K9Ac (Sigma-Aldrich, St. Louis, MO, USA), H3 (Abcam, Cambridge, MA, USA), acetyllysine or CPS1 (Cell Signaling Technology, Beverly, MA, USA), washed with PBST, followed by incubation with anti-rabbit or anti-mouse HRP conjugated secondary antibody. Then, the signal was detected by SuperSignal West Pico Chemiluminescent substrate (Thermo Fisher Scientific, Rockford, IL, USA).

[3] = biological target: T3, SIRT2 (Homo sapiens, UniProt Q8IXJ6); experiment: Cell lysate labeling, SIRT2-overexpressing HEK293; type: biochemical; conditions: 10 μM probe
T3 construct: expressed in transfected cells; host or cells: HEK293
T3 sequence (Q8IXJ6 1-389): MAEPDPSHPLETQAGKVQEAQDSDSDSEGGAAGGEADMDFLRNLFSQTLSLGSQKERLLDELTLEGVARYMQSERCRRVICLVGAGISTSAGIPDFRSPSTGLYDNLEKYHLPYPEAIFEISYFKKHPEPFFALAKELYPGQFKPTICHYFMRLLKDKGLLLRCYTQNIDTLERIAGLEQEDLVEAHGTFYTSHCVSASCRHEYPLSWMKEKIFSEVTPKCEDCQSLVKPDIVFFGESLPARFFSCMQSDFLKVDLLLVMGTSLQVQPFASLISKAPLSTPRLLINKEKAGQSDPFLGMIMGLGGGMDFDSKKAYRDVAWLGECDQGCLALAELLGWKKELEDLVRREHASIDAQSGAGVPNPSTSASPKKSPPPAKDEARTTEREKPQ
Description: Remarkably, probe 2C was also able to label individual sirtuin isoforms in cell lysates. HEK293 cells overexpressing human SIRT2 were lysed, and the lysate was subjected to the labeling by 10 μM probe 2C.
Cells were harvested and lysed with RIPA buffer (Thermo Fisher Scientific, Rockford, IL, USA) supplemented with protease inhibitor cocktail (Thermo Fisher Scientific, Rockford, IL, USA). Protein concentration was determined by Bradford assay. A typical labeling experiment contained 4 to 24 μg of protein, 500 μM NAD^+, and 10 μM probe in 100 mM phosphate buffer pH 7.5. The photoaffinity labeling, “click” conjugation to fluorescent dye and visualization were similar to the protocols for labeling recombinant sirtuins as described above.

SMILES	labeling of SIRT5 in sirtuin mixture [1]	CPS1Ac level compared to control [2]	amount of cell lysate in which labeling was still observed [3]	labeling of SIRT2 in cell lysate ([3]; lysate of HEK293 cells overexpressing human SIRT2)
C#CCCCC1(CCC(=O)N[C@@H](CCCCNC(=S)CCC(=O)O)C(=O)N[C@@H](C)C(=O)N[C@@H](C)C(=O)OC)N=N1 [Probe 2B]	robust labeling of SIRT5 in a concentration-dependent fashion	increased CPS1Ac level		
C#CCCCC1(CCC(=O)N[C@@H](CCCCNC(=S)CCCCCCCCCCCCC)C(=O)N[C@@H](C)C(=O)N[C@@H](C)C(=O)OC)N=N1 [Probe 2C]			4 µg	clean and selective labeling of SIRT2

— PMC7792806, “Development of Second Generation Activity-Based Chemical Probes for Sirtuins” (Molecules, 2020)
